Reference: ChEMBL document CHEMBL4376829, “Discovery and biological evaluation of vinylsulfonamide derivatives as highly potent, covalent TEAD autopalmitoylation inhibitors” (Eur J Med Chem, 2019)
Activity calls are given as the source filed them. No cut-off for these calls is given here.

Columns and labels:
[1] = target: Cyclin-dependent kinase 1/cyclin B1 (Homo sapiens) (UniProt P06493+P14635); test: Inhibition of full-length recombinant human CDK1/cyclinB at 10 uM using histone H1 as substrate after 40 mins by in presence of [gamma33P]ATP by scintillation counting method relative to control; assay type: protein-complex assay
[2] = target: PI3-kinase p110-alpha/p85-alpha (Homo sapiens) (UniProt P27986+P42336); test: Inhibition of full-length recombinant human PI3K (p110a/p85a) at 10 uM using phosphatidylinositol 4,5-bisphosphate as substrate after 40 mins by fluorescence based assay relative to control; assay type: protein-complex assay
[3] = target: CDC7/Cyclin B1 (Homo sapiens) (UniProt P14635+O00311); test: Inhibition of full-length recombinant human Cdc7/CyclinB1 at 10 uM using histone H1 as substrate after 120 mins by in presence of [gamma33P]ATP by scintillation counting method relative to control; assay type: protein-complex assay
[4] = target: Death-associated protein kinase 1 (Homo sapiens) (UniProt P53355); test: Inhibition of recombinant human DAPK1 (1 to 296 residues) at 10 uM using KKLNRTLSFAEPG as substrate after 40 mins by in presence of [gamma33P]ATP by scintillation counting method relative to control
[5] = target: Serine/threonine-protein kinase 26 (Homo sapiens) (UniProt Q9P289); test: Inhibition of recombinant human MST4 (4 to 304 residues) at 10 uM using RLGRDKYKTLRQIRQ as substrate measured after 40 mins in presence of [gamma33P]ATP by scintillation counting method relative to control
Chain of Serine/threonine-protein kinase 26 (Homo sapiens) (Q9P289 2-416 limits assumed): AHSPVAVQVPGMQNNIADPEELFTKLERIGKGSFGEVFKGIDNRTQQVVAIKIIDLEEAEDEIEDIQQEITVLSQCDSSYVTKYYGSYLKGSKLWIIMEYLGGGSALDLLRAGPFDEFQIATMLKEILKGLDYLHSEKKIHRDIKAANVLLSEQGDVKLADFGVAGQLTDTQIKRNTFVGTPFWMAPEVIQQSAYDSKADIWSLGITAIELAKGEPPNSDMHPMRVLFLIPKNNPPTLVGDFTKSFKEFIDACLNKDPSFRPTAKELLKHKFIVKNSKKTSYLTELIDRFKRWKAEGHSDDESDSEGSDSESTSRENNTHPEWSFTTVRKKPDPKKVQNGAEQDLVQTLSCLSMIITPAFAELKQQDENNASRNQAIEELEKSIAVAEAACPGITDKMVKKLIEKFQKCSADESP

[6] = target: Tyrosine-protein kinase JAK1 (Homo sapiens) (UniProt P23458); test: Inhibition of recombinant human JAK1 (866 to end residues) at 10 uM using GEEPLYWSFPAKK as substrate measured after 40 mins in presence of [gamm33P]ATP by scintillation counting method relative to control
[7] = target: Serine/threonine-protein kinase ULK2 (Homo sapiens) (UniProt Q8IYT8); test: Inhibition of recombinant human ULK2 (1 to 306 residues) at 10 uM using casein as substrate measured after 40 mins in presence of [gamm33P]ATP by scintillation counting method relative to control
Chain of Serine/threonine-protein kinase ULK2 (Homo sapiens) (Q8IYT8 whole entry, the tested form may be a part): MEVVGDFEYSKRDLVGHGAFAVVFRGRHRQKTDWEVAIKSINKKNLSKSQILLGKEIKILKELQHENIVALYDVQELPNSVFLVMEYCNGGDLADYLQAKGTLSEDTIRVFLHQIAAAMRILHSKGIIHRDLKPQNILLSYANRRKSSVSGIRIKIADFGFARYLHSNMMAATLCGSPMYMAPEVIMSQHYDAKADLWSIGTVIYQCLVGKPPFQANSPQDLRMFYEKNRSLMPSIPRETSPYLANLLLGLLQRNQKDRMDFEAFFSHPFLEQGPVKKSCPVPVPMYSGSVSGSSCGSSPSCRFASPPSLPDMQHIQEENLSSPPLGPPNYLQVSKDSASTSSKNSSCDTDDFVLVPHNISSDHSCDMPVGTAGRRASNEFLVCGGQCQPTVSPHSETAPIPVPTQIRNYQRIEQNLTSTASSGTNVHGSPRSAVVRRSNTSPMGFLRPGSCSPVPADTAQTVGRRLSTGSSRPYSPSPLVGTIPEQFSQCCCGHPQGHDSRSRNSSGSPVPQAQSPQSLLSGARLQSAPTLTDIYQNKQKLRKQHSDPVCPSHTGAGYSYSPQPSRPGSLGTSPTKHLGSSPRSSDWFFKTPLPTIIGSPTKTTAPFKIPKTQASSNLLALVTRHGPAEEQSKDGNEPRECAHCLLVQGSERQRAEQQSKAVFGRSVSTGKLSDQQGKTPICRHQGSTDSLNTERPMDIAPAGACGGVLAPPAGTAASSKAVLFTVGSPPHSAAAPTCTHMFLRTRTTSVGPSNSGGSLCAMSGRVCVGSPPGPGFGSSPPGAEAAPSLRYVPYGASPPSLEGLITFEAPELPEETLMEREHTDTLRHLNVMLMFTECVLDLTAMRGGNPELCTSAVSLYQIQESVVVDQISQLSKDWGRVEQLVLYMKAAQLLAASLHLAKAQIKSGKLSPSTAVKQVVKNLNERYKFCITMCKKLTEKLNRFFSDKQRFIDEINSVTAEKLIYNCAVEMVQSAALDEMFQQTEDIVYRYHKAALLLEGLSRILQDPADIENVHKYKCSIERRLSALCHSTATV

[8] = target: Mitogen-activated protein kinase kinase kinase 10 (Homo sapiens) (UniProt Q02779); test: Inhibition of recombinant human MLK2 (1 to 449 residues) at 10 uM using myelin basic protein as substrate measured after 40 mins in presence of [gamma33P]ATP by scintillation counting method relative to control
Chain of Mitogen-activated protein kinase kinase kinase 10 (Homo sapiens) (Q02779 whole entry, looked up, the tested form may be a part): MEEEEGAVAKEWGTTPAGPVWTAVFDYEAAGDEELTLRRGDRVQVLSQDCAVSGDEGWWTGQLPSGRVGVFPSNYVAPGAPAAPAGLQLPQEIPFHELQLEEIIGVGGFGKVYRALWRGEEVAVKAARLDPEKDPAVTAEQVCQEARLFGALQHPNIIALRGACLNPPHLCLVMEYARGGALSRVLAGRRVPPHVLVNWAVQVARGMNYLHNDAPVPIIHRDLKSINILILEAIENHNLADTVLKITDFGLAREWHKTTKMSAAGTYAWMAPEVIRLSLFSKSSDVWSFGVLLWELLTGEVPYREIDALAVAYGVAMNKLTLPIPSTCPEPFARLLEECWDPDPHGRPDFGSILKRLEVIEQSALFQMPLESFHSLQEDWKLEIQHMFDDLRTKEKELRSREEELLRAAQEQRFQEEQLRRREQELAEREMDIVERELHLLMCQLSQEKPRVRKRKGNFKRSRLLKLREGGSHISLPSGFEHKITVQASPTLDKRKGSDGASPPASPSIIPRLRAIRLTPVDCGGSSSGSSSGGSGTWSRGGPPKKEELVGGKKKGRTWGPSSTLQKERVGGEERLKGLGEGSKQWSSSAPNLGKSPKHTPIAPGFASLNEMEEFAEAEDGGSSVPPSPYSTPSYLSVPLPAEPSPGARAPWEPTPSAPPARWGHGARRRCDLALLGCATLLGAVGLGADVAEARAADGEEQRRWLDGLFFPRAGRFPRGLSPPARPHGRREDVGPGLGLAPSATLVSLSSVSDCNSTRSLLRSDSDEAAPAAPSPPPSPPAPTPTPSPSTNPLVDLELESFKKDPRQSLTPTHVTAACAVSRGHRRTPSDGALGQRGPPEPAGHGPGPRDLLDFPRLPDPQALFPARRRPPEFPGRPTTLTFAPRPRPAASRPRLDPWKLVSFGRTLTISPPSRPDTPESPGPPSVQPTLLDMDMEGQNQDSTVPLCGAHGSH

Homo sapiens = organism: Homo sapiens; test: Inhibition of recombinant human MAPKAPK2 A399G mutant (46 to end residues) at 10 uM using KKLNRTLSVA as substrate measured after 40 mins in presence of [gamma33P]ATP by scintillation counting method relative to control
[9] = target: Protein arginine N-methyltransferase 6 (Homo sapiens) (UniProt Q96LA8); test: Inhibition of human PRMT6 at 10 uM relative to control
[10] = target: Insulin receptor (Homo sapiens) (UniProt P06213); test: Inhibition of recombinant human IR (1005 to 1310 residues) at 10 uM using KKSRGDYMTMQIG as substrate after 40 mins in presence of [gamma33P]ATP by scintillation counting method relative to control
[11] = target: Serine/threonine-protein kinase VRK1 (Homo sapiens) (UniProt Q99986); test: Inhibition of human VRK1 at 10 uM by radiometric assay relative to control
[12] = target: Myosin light chain kinase 2, skeletal/cardiac muscle (Homo sapiens) (UniProt Q9H1R3); test: Inhibition of recombinant full-length human MYLK2 at 10 uM using KKLNRTLSFAEPG as substrate measured after 40 mins in presence of [gamma33P]ATP by scintillation counting method relative to control
[13] = target: Histone-arginine methyltransferase CARM1 (Homo sapiens) (UniProt Q86X55); test: Inhibition of human PRMT4 at 10 uM relative to control
Chain of Histone-arginine methyltransferase CARM1 (Homo sapiens) (Q86X55 whole entry): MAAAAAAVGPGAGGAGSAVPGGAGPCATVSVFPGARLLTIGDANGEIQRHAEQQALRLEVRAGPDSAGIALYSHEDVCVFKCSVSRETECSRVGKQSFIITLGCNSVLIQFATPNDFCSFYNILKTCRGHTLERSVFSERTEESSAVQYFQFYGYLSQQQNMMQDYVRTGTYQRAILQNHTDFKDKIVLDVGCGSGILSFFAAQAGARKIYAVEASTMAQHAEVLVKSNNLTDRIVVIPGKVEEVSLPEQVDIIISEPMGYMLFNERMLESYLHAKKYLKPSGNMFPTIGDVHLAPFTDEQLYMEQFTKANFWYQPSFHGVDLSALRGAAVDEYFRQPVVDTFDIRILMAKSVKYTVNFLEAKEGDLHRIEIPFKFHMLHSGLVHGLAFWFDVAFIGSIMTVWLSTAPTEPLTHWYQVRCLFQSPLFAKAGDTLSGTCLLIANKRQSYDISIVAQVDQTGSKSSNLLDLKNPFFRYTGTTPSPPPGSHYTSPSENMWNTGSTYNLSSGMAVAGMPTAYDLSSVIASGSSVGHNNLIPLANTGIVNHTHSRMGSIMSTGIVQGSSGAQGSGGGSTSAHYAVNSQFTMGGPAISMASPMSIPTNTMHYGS

[14] = target: Inhibitor of nuclear factor kappa-B kinase subunit epsilon (Homo sapiens) (UniProt Q14164); test: Inhibition of full length recombinant human IKKepsilon at 10 uM using casein as substrate after 40 mins in presence of [gamma33P]ATP by scintillation counting method relative to control
Chain of Inhibitor of nuclear factor kappa-B kinase subunit epsilon (Homo sapiens) (Q14164 whole entry, the tested form may be a part): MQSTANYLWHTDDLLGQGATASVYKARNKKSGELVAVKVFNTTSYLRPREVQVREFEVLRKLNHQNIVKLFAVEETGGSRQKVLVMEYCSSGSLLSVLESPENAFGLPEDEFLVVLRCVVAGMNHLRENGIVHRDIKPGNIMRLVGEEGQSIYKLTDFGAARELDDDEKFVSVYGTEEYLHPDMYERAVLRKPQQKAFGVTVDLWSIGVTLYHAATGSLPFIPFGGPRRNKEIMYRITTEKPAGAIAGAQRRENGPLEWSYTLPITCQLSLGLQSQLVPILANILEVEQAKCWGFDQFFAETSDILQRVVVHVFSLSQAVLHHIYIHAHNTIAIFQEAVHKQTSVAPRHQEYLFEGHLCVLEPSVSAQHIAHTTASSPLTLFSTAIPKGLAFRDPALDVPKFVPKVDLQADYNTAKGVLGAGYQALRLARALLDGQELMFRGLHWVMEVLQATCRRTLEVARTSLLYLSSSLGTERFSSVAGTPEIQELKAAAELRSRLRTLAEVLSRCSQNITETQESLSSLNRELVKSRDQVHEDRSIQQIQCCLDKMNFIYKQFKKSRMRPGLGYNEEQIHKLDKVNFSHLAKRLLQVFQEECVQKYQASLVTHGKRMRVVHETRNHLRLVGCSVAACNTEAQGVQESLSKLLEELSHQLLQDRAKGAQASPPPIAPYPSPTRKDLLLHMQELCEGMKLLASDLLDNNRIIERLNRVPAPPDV

[15] = target: Mitogen-activated protein kinase kinase kinase 9 (Homo sapiens) (UniProt P80192); test: Inhibition of recombinant human MLK1 (134 to 414 residues) at 10 uM using casein as substrate measured after 40 mins in presence of [gamma33P]ATP by scintillation counting method relative to control
[16] = target: cGMP-dependent protein kinase 1 (Homo sapiens) (UniProt Q13976); test: Inhibition of full-length recombinant human PKG1alpha at 10 uM using RRRLSFAEPG as substrate after 40 mins by in presence of [gamma33P]ATP by scintillation counting method relative to control
[17] = target: TGF-beta receptor type-2 (Homo sapiens) (UniProt P37173); test: Inhibition of recombinant human TGFBR2 (188 to end residues) at 10 uM using myelin basic protein as substrate measured after 120 mins in presence of [gamm33P]ATP by scintillation counting method relative to control
[18] = target: Fatty acid-binding protein 5 (Homo sapiens) (UniProt Q01469); test: Binding affinity to FABP5 (unknown origin) at 1:1 ratio by fluorescence based thermal shift assay
Chain of Fatty acid-binding protein 5 (Homo sapiens) (Q01469 whole entry): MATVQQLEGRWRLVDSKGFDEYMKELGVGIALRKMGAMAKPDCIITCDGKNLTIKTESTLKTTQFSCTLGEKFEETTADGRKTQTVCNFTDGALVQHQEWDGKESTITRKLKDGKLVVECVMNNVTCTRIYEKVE

[19] = target: NUAK family SNF1-like kinase 1 (Homo sapiens) (UniProt O60285); test: Inhibition of recombinant human ARK5 (2 to end residues) at 10 uM using KKKVSRSGLYRSPSMPENLNRPR as substrate measured after 40 mins in presence of [gamma33P]ATP by scintillation counting method relative to control
[20] = target: Transcriptional enhancer factor TEF-3 (Homo sapiens, UniProt Q15561); test: Inhibition of N-terminal His6-tagged human TEAD4-YBD (217 to 434 residues) expressed in Escherichia coli C43 (DE3) cells at 50 to 1000 nM preincubated for 2 hrs followed by palmitoyl alkyne-coenzyme A addition and measured after 30 mins in presence of BSA by immunoblot analysis
[21] = target: Tyrosine-protein kinase Yes (Homo sapiens) (UniProt P07947); test: Inhibition of recombinant full-length human Yes at 10 uM using poly(Glu, Tyr) 4:1 as substrate measured after 40 mins in presence of [gamma33P]ATP by scintillation counting method relative to control
[22] = target: Eukaryotic translation initiation factor 2-alpha kinase 3 (Homo sapiens) (UniProt Q9NZJ5); test: Inhibition of recombinant human PEK (536 to end residues) at 10 uM using RSRSRSRSRSRSRSR as substrate measured after 40 mins in presence of [gamma33P]ATP by scintillation counting method relative to control
[23] = target: Platelet-derived growth factor receptor alpha (Homo sapiens) (UniProt P16234); test: Inhibition of recombinant human PDGFRalpha (550 to end residues) at 10 uM using poly(Glu, Tyr) 4:1 as substrate measured after 40 mins in presence of [gamma33P]ATP by scintillation counting method relative to control
Chain of Platelet-derived growth factor receptor alpha (Homo sapiens) (P16234 whole entry): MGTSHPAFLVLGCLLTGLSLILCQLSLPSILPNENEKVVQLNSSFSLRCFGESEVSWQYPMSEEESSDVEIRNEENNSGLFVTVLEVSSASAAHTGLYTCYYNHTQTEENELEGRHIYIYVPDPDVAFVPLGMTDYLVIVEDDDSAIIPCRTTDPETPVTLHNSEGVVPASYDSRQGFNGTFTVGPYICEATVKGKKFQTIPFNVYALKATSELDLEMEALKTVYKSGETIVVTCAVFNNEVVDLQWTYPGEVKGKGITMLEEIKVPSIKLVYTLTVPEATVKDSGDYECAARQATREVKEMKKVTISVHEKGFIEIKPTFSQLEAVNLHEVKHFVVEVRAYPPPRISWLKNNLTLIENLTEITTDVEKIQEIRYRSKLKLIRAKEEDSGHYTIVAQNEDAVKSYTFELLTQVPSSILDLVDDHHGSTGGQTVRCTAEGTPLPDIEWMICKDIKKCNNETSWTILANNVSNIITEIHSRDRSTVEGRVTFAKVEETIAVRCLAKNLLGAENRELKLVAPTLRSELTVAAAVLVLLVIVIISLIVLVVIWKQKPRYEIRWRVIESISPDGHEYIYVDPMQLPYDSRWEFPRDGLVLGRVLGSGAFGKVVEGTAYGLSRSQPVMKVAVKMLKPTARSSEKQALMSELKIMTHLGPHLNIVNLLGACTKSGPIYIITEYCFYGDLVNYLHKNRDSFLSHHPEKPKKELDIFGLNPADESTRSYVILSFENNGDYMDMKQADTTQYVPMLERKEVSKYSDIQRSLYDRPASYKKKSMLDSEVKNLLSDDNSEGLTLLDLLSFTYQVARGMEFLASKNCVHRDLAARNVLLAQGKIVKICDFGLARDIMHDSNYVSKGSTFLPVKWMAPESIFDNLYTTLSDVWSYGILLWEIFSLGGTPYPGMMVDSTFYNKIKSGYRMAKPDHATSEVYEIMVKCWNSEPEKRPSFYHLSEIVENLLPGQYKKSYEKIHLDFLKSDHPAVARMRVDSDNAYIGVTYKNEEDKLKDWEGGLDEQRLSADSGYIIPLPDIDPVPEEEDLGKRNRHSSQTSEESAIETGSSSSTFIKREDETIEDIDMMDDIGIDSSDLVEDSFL

SMILES: C=CS(=O)(=O)Nc1ccc(Cc2ccc3ccccc3c2)cc1
- inhibition [1]: 4%
- inhibition [2]: 16%
- inhibition [3]: 21%
- inhibition [4]: 8%
- inhibition [5]: 1%
- inhibition [6]: 7%
- inhibition [7]: 2%
- inhibition [8]: 2%
- inhibition (Homo sapiens): -6%
- inhibition [9]: 7%
- inhibition [10]: -10%
- inhibition [11]: 3%
- inhibition [12]: 6%
- inhibition [13]: 5%
- inhibition [14]: 5%
- inhibition [15]: 8%
- inhibition [16]: -6%
- inhibition [17]: 9%
- Activity [18]: Active
- inhibition [19]: 10%
- inhibition [20]: Active
- inhibition [21]: 3%
- inhibition [22]: -1%
- inhibition [23]: 1%
